# Measurements published in US10640495B2, “Heterocycle derivatives having TrkA inhibitory activity” (Shionogi & Co., Ltd., priority 2015, dated 2020).
# Target: human TrkA (Homo sapiens (Human), UniProt P04629)
# Assay: Human TrkA inhibition assay (Test Example 2)
# Type: biochemical
# Conditions: Table 152, human TrkA inhibition; read-out: IC50_nM
# Protocol: Seven point five μL per well of human TrkA (PV3144, Lifetechnologies, final concentration: 1 nmol/L) suspended in the assay buffer (100 mmol/L 4-(2-hydroxyethyl)-1-piperazineethanesulfonic acid (HEPES), 10 mmol/L magnecium chloride, 0.003 vol % Brij-35, 0.004 vol % Tween20 and 1 mmol/L dithiothreitol (DTT)) was applied in a 384 well plate and the plate was pre-incubated for 15 min at room temperature with 0.4 μL of each compound (final concentration: 200 μmol/L-1 pmol/L) dissolved in DMSO. Then, fluorescent substrate (FL-peptide 27, 760424, PerkinElmer, final concentration: 1.5 μmol/L) and ATP (final concentration 500 μmol/L) dissolved in the assay buffer was added in each well. After the incubation of 120 min at 37° C., fifteen μL of termination buffer (100 mmol/L HEPES, 40 mmol/L ethylenediaminetetraacetic acid (EDTA), 10 mmol/L magnecium chloride, 0.003 vol % Brij-35, 0.004 vol % Tween20, 1 mmol/L DTT and 0.16 vol % Coating Reagent 3) was added in each well to stop the enzyme reaction. Fluorescent intensities (FI) of phosphorylated and non-phosphorylated fluorescent substrates were measured by LabChip EZReader II (Caliper LifeSciences, Inc.), and conversion ratio (CR) was calculated by the following formula-1. The CR in the well applied with DMSO alone was used as a negative control and the CR in the well without applying TrkA was used as a positive control. The inhibitory effect of each compound on TrkA phosphorylation was calculated by the following formula-2. CR (%)=(FI of phosphorylated substrate/(FI of phosphorylated substrate+FI of non-phosphorylated substrate))×100 (Formula-1) Phosphorylation inhibition (%)=(1−(CR with compound treatment−CR of positive control)/(CR of negative control−CR of positive control))×100 (Formula-2)
# IC50 values (nmol/L) were determined by the logistic regression using the inhibition data in 10 points of 3-fold dilution series at a compound concentration range of 20 nmol/L to 1 pmol/L, or 10 points of 3-fold dilution series at the range of 2 μmol/L to 0.1 nmol/L, or 10 points of 3-fold dilution series at the range of 200 μmol/L to 10 nmol/L, or 15 points of 3-fold dilution series at the range of 200 μmol/L to 0.04 nmol/L.
# The evaluation results of the compounds in the present invention are indicated as follows. IC50 values of 0 to 100 nM, 100 to 1000 nM and over 1000 nM were shown as “A”, “B” and “C”, respectively.
# Sequence of human TrkA (P04629 440-796): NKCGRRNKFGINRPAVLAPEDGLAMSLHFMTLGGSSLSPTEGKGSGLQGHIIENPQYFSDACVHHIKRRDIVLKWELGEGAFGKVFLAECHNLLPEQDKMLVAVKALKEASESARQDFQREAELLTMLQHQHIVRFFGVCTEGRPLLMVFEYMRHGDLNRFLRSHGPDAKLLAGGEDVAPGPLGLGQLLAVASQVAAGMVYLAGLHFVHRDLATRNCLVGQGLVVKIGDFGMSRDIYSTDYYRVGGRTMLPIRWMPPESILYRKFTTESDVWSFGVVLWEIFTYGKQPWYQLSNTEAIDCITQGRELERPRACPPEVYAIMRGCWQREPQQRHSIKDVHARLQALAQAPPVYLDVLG
row,IC50 [nM],Compound
1,< 100,COCCN1C[C@@H](NC(=O)Nc2c(C)c(-c3cnn(C)c3)nn2-c2ccccc2)[C@H](c2ccc(F)c(F)c2)O1 (racemic) [Compound I-8]
2,< 100,COCCN1C[C@@H](NC(=O)Nc2c(C)c(-c3cnc(C)nc3)nn2-c2ccccc2)[C@H](c2ccc(F)c(F)c2)O1 (racemic) [Compound I-26]
3,< 100,COCCN1C[C@@H](NC(=O)Nc2c(C)c(-c3ccc(OCc4ccccc4)nc3)nn2-c2ccccc2)[C@H](c2ccc(F)c(F)c2)O1 (racemic) [Compound I-27]
4,< 100,COCCN1C[C@@H](NC(=O)Nc2c(C)c(C3=CCNCC3)nn2-c2ccccc2)[C@H](c2ccc(F)c(F)c2)O1 (racemic) [Compound I-30]
5,< 100,COCCN1C[C@@H](NC(=O)Nc2c(C)c(-c3ccc(=O)[nH]c3)nn2-c2ccccc2)[C@H](c2ccc(F)c(F)c2)O1 (racemic) [Compound I-32]
6,< 100,COCCN1C[C@@H](NC(=O)Nc2c(C)c(-c3ccc(C(=O)OC(C)(C)C)cc3)nn2-c2ccccc2)[C@H](c2ccc(F)c(F)c2)O1 (racemic) [Compound I-33]
7,< 100,COCCN1C[C@@H](NC(=O)Nc2c(C)c(-c3cnc(CO)nc3)nn2-c2ccccc2)[C@H](c2ccc(F)c(F)c2)O1 (racemic) [Compound I-34]
8,< 100,COCCN1C[C@@H](NC(=O)Nc2c(C)c(-c3ccc(C(=O)O)cc3)nn2-c2ccccc2)[C@H](c2ccc(F)c(F)c2)O1 (racemic) [Compound I-35]

# Further lines, the molecule ahead of its results:
row,Compound,IC50 [nM]
1,Cc1c(-c2cnn(C)c2)nn(-c2ccccc2)c1NC(=O)N[C@@H]1CN(Cc2csnn2)O[C@H]1c1ccccc1 (racemic) [Compound I-2],100 to 1000
2,COCC[C@@H]1O[C@@H](NC(=O)Nc2c(C)c(-c3cnn(C)c3)nn2-c2ccccc2)[C@H](c2ccccc2)O1 (racemic) [Compound I-5],< 100
3,COCCN1C[C@@H](NC(=O)Nc2c(C)c(-c3cnn(C)c3)nn2-c2ccccc2)[C@H](c2ccnc(Cl)c2)O1 (racemic) [Compound I-9],< 100
4,COCC[C@@H]1C[C@@H](NC(=O)Nc2c(C)c(-c3cnn(C)c3)nn2-c2ccccc2)[C@H](c2ccc(F)c(F)c2)O1 (racemic) [Compound I-23],< 100
5,COCCN1C[C@@H](NC(=O)Nc2c(C)c(C3=CCN(C(=O)OC(C)(C)C)CC3)nn2-c2ccccc2)[C@H](c2ccc(F)c(F)c2)O1 (racemic) [Compound I-29],< 100
6,COCCN1C[C@@H](NC(=O)Nc2c(C)c(C3=CCN(C(=O)OC(C)(C)C)CC3)nn2-c2ccccc2)[C@H](c2ccnc(F)c2)O1 (racemic) [Compound I-41],< 100
7,COCCN1C[C@@H](NC(=O)Nc2c(C)c(C3=CCN(C(C)=O)CC3)nn2-c2ccccc2)[C@H](c2ccnc(F)c2)O1 (racemic) [Compound I-42],< 100

# Same assay, conditions: human TrkA 1 nmol/L, ATP 500 μmol/L, 120 min at 37° C.; read-out: IC50 values (TrkA phosphorylation inhibition)
row,IC50 [nM],Compound
1,0.81,COCCN1C[C@@H](NC(=O)Nc2c(C)c(-c3ccc4c(cnn4C)c3)nn2-c2ccccc2)[C@H](c2ccc(F)c(F)c2)O1 (racemic) [Compound I-22]
2,2.5,COCC[C@@H]1C[C@@H](NC(=O)Nc2c(C)c(-c3cnc(C)nc3)nn2-c2ccccc2)[C@H](c2ccc(F)c(F)c2)O1 (racemic) [Compound I-28]
3,0.78,COCCN1C[C@@H](NC(=O)Nc2c(C)c(C3=CCN(C(C)=O)CC3)nn2-c2ccccc2)[C@H](c2ccc(F)c(F)c2)O1 (racemic) [Compound I-31]

# The remaining lines, values behind:
row,Compound,IC50 [nM]
1,Cc1c(-c2cnn(C)c2)nn(-c2ccccc2)c1NC(=O)N[C@@H]1OC(C)(C)O[C@H]1c1ccccc1 (racemic) [Compound I-1],5200
2,CCN1C[C@@H](NC(=O)Nc2c(C)c(-c3cnn(C)c3)nn2-c2ccccc2)[C@H](c2ccccc2)O1 (racemic) [Compound I-3],120
3,COCCN1C[C@@H](NC(=O)Nc2c(C)c(-c3cnn(C)c3)nn2-c2ccccc2)[C@H](c2ccc(F)c(F)c2)N1 (racemic) [Compound I-10],170
4,CCN1CCC(NC(=O)c2ccc(-c3nn(-c4ccccc4)c(NC(=O)N[C@@H]4CN(CCOC)O[C@H]4c4ccc(F)c(F)c4)c3C)cc2)CC1 (racemic) [Compound I-36],1.4
